Measured values published in ChEMBL document CHEMBL1201862, “PubChem BioAssay data set” (2004).
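Test compounds were applied to cells in 96-well plates for 48 hours at 5 doses. Abbreviation: GI50, concentration required for 50% inhibition of growth.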 Calls of active or inactive are those of the source. No stated cut-off is given here; in the data, active = GI50 up to about 1.1 µM and inactive = higher.

Columns and labels:
Test in all cases: NCI anticancer screen, dose series, 48 h
NCI-H23 = tested on: NCI-H23
KM12 = tested on: KM12
MCF7 = tested on: MCF7
LOX IMVI = tested on: LOX IMVI
MDA-N = tested on: MDA-N
786-0 = tested on: 786-0
SK-OV-3 = tested on: SK-OV-3
T47D = tested on: T47D
SF-295 = tested on: SF-295
SW-620 = tested on: SW-620
EKVX = tested on: EKVX
Malme-3M = tested on: Malme-3M
HCT-116 = tested on: HCT-116
SNB-75 = tested on: SNB-75
Hs-578T = tested on: Hs-578T
OVCAR-4 = tested on: OVCAR-4
HCC 2998 = tested on: HCC 2998
OVCAR-8 = tested on: OVCAR-8
BT-549 = tested on: BT-549

Measured: GI50

O=C1CSC(c2cccc(Cl)c2)N1c1c(O)c(Cl)cc(Br)c1Cl (stereo not given)
inactive: NCI-H23 27.7 µM | KM12 34 µM | MCF7 15.6 µM | LOX IMVI 16.3 µM | MDA-N 17.1 µM | 786-0 25.5 µM | SK-OV-3 > 100 µM | T47D 17.1 µM | SF-295 > 100 µM | SW-620 17.2 µM | EKVX > 100 µM | Malme-3M > 100 µM | HCT-116 15.1 µM | SNB-75 29.4 µM | Hs-578T 29.8 µM | OVCAR-4 14.9 µM

CC(C)(CCCCC(C)(C)[N+](C)(C)C)[N+](C)(C)C
inactive: HCC 2998 > 100 µM | MCF7 > 100 µM | MDA-N > 100 µM | 786-0 > 100 µM | SK-OV-3 > 100 µM | T47D > 100 µM | SW-620 > 100 µM | EKVX > 100 µM | OVCAR-8 > 100 µM | HCT-116 > 100 µM | SNB-75 > 100 µM | Hs-578T > 100 µM | OVCAR-4 > 100 µM

CCOC(=O)C(=CNC(=S)Nc1c(CC)cccc1CC)C(=O)OCC
inactive: NCI-H23 > 100 µM | HCC 2998 > 100 µM | KM12 > 100 µM | MCF7 > 100 µM | LOX IMVI > 100 µM | MDA-N > 100 µM | 786-0 > 100 µM | SK-OV-3 > 100 µM | T47D > 100 µM | SF-295 > 100 µM | SW-620 > 100 µM | EKVX > 100 µM | OVCAR-8 > 100 µM | Malme-3M > 100 µM | HCT-116 > 100 µM | SNB-75 12.8 µM | Hs-578T 80.7 µM | OVCAR-4 > 100 µM

C(CCCCc1nnc(N2CCCCC2)o1)CCCc1nnc(N2CCCCC2)o1
inactive: NCI-H23 > 100 µM | HCC 2998 > 100 µM | KM12 > 100 µM | MCF7 > 100 µM | LOX IMVI > 100 µM | 786-0 > 100 µM | SK-OV-3 > 100 µM | SF-295 > 100 µM | SW-620 > 100 µM | EKVX > 100 µM | BT-549 > 100 µM | OVCAR-8 > 100 µM | Malme-3M > 100 µM | HCT-116 > 100 µM | SNB-75 > 100 µM | OVCAR-4 > 100 µM

CCO[C@@]1(COCc2ccccc2)OC(=O)C[C@@H]1N1C(=O)OC[C@@H]1c1ccccc1
inactive: NCI-H23 > 100 µM | HCC 2998 > 100 µM | KM12 32.5 µM | MCF7 > 100 µM | LOX IMVI > 100 µM | MDA-N > 100 µM | 786-0 > 100 µM | SK-OV-3 > 100 µM | T47D > 100 µM | SF-295 > 100 µM | SW-620 > 100 µM | EKVX > 100 µM | BT-549 > 100 µM | OVCAR-8 > 100 µM | Malme-3M > 100 µM | HCT-116 > 100 µM | SNB-75 > 100 µM | OVCAR-4 > 100 µM

COC(=O)NCCc1n[nH]c2c1C(=O)C=C(OC)C2=O
inactive: NCI-H23 20 µM | HCC 2998 > 100 µM | KM12 20.9 µM | MCF7 27.2 µM | LOX IMVI 17.8 µM | MDA-N 17.9 µM | 786-0 19.5 µM | SK-OV-3 > 100 µM | SF-295 18.2 µM | SW-620 22.6 µM | EKVX 22.9 µM | OVCAR-8 22 µM | Malme-3M 15.5 µM | HCT-116 18.6 µM | SNB-75 19.2 µM | Hs-578T 34.3 µM | OVCAR-4 19.6 µM

CC(C)(C)C(=O)C(Cc1ccccc1)C(=O)C(C)(C)C
inactive: NCI-H23 > 100 µM | HCC 2998 > 100 µM | KM12 > 100 µM | MCF7 > 100 µM | LOX IMVI > 100 µM | MDA-N > 100 µM | 786-0 > 100 µM | SK-OV-3 23.2 µM | T47D 25.5 µM | SF-295 > 100 µM | SW-620 > 100 µM | EKVX > 100 µM | OVCAR-8 > 100 µM | Malme-3M > 100 µM | HCT-116 52.6 µM | SNB-75 > 100 µM | Hs-578T > 100 µM | OVCAR-4 66.1 µM

CCN(CC)CC1CCCCN1CC(=O)N1c2ccccc2NC(=O)c2ccccc21 (stereo not given)
inactive: NCI-H23 > 100 µM | HCC 2998 > 100 µM | KM12 > 100 µM | MCF7 > 100 µM | LOX IMVI > 100 µM | MDA-N > 100 µM | 786-0 > 100 µM | SK-OV-3 > 100 µM | T47D > 100 µM | SF-295 > 100 µM | SW-620 > 100 µM | EKVX > 100 µM | OVCAR-8 > 100 µM | Malme-3M > 100 µM | HCT-116 > 100 µM | SNB-75 13.9 µM | Hs-578T > 100 µM | OVCAR-4 > 100 µM

COc1ccc(/C=C2\CSC/C(=C\c3ccc(OC)c(OC)c3OC)C2=O)c(OC)c1OC
inactive: NCI-H23 43.5 µM | HCC 2998 > 10 µM | KM12 32.4 µM | MCF7 65 µM | LOX IMVI 23.4 µM | MDA-N 30.3 µM | 786-0 22.3 µM | SK-OV-3 > 100 µM | T47D > 100 µM | SF-295 25.4 µM | SW-620 20.6 µM | EKVX > 100 µM | BT-549 35.5 µM | OVCAR-8 24.1 µM | Malme-3M 5.86 µM | HCT-116 17 µM
